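Dose response: 5 concentrations. Exposure: 48 h. Format: 96-well plates. Endpoint: linear interpolation; highest concentration if not reached. At the GI50, growth is halved.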 The source made the active and inactive calls. No stated cut-off is given here; in the data, active = GI50 up to about 1.1 µM and inactive = higher.
Columns and labels:
Experiment in all cases: DTP human tumour cell line panel, 48 h
786-0 = tested on: 786-0
A498 = tested on: A498
A549 = tested on: A549
ACHN = tested on: ACHN
CAKI-1 = tested on: CAKI-1
CCRF-CEM = tested on: CCRF-CEM
COLO 205 = tested on: COLO 205
DLD-1 = tested on: DLD-1
DMS-114 = tested on: DMS-114
DMS-273 = tested on: DMS-273
EKVX = tested on: EKVX
HCC 2998 = tested on: HCC 2998
HCT-116 = tested on: HCT-116
HCT-15 = tested on: HCT-15
HL-60 = tested on: HL-60
HOP-18 = tested on: HOP-18
HOP-62 = tested on: HOP-62
HOP-92 = tested on: HOP-92
HT-29 = tested on: HT-29
IGROV-1 = tested on: IGROV-1
K562 = tested on: K562
KM12 = tested on: KM12
LOX IMVI = tested on: LOX IMVI
M14 = tested on: M14
M19-MEL = tested on: M19-MEL
MOLT-4 = tested on: MOLT-4
NCI-H226 = tested on: NCI-H226
NCI-H23 = tested on: NCI-H23
NCI-H460 = tested on: NCI-H460
OVCAR-3 = tested on: OVCAR-3
OVCAR-4 = tested on: OVCAR-4
OVCAR-5 = tested on: OVCAR-5
OVCAR-8 = tested on: OVCAR-8
RXF 393 = tested on: RXF 393
RXF 631 = tested on: RXF 631
SF-268 = tested on: SF-268
SF-295 = tested on: SF-295
SF-539 = tested on: SF-539
SK-MEL-28 = tested on: SK-MEL-28
SK-MEL-2 = tested on: SK-MEL-2
SK-MEL-5 = tested on: SK-MEL-5
SK-OV-3 = tested on: SK-OV-3
SN12C = tested on: SN12C
SNB-19 = tested on: SNB-19
SNB-75 = tested on: SNB-75
SNB-78 = tested on: SNB-78
SW-620 = tested on: SW-620
TK-10 = tested on: TK-10
U-251 = tested on: U-251
UACC-257 = tested on: UACC-257
UACC-62 = tested on: UACC-62
UO-31 = tested on: UO-31
KM-20L2 = tested on: KM-20L2
LXFL 529 = tested on: LXFL 529
Malme-3M = tested on: Malme-3M
NCI-H522 = tested on: NCI-H522

## Cc1ccc(-c2nc3c(C(=O)NCCN(C)C)cccc3[nH]2)cc1
786-0
  GI50: 24.4 µM (inactive)
A498
  GI50: 13 µM (inactive)
A549
  GI50: 11.2 µM (inactive)
ACHN
  GI50: 10.3 µM (inactive)
CAKI-1
  GI50: 23.5 µM (inactive)
CCRF-CEM
  GI50: 11.5 µM (inactive)
COLO 205
  GI50: 8 µM (inactive)
DLD-1
  GI50: 13.5 µM (inactive)
DMS-114
  GI50: 13.3 µM (inactive)
DMS-273
  GI50: 9.06 µM (inactive)
EKVX
  GI50: 24.4 µM (inactive)
HCC 2998
  GI50: 14.3 µM (inactive)
HCT-116
  GI50: 5.06 µM (inactive)
HCT-15
  GI50: 13.9 µM
HL-60
  GI50: 14.2 µM (inactive)
HOP-18
  GI50: 15.3 µM (inactive)
HOP-62
  GI50: 15.9 µM (inactive)
HOP-92
  GI50: 13.1 µM (inactive)
HT-29
  GI50: 15.5 µM (inactive)
IGROV-1
  GI50: 15.9 µM (inactive)
K562
  GI50: 13.7 µM (inactive)
KM12
  GI50: 20 µM (inactive)
LOX IMVI
  GI50: 11.1 µM (inactive)
M14
  GI50: 15.8 µM (inactive)
M19-MEL
  GI50: 16.2 µM (inactive)
MOLT-4
  GI50: 3.51 µM (inactive)
NCI-H226
  GI50: 11.9 µM (inactive)
NCI-H23
  GI50: 15 µM (inactive)
NCI-H460
  GI50: 4.89 µM (inactive)
OVCAR-3
  GI50: 21.5 µM (inactive)
OVCAR-4
  GI50: 22.9 µM (inactive)
OVCAR-5
  GI50: 20.9 µM (inactive)
OVCAR-8
  GI50: 15.2 µM (inactive)
RXF 393
  GI50: 10.7 µM (inactive)
RXF 631
  GI50: 4.89 µM (inactive)
SF-268
  GI50: 18.5 µM (inactive)
SF-295
  GI50: 16.7 µM (inactive)
SF-539
  GI50: 9.12 µM (inactive)
SK-MEL-28
  GI50: 18.4 µM (inactive)
SK-MEL-2
  GI50: 18.5 µM (inactive)
SK-MEL-5
  GI50: 13.7 µM (inactive)
SK-OV-3
  GI50: 14.5 µM (inactive)
SN12C
  GI50: 11.5 µM (inactive)
SNB-19
  GI50: 26.1 µM (inactive)
SNB-75
  GI50: 18 µM (inactive)
SNB-78
  GI50: 20.2 µM (inactive)
SW-620
  GI50: 6.27 µM (inactive)
TK-10
  GI50: 17.7 µM (inactive)
U-251
  GI50: 18.3 µM (inactive)
UACC-257
  GI50: 14 µM (inactive)
UACC-62
  GI50: 18.1 µM (inactive)
UO-31
  GI50: 9.79 µM (inactive)

## CCN(CC)CCOC(c1ccccc1)c1ccccc1.CCOC(=O)Nc1ccc(S(=O)(=O)OC)cc1.CCOC(=O)Nc1ccc(S(=O)(=O)OC)cc1.Nc1ccc(C(=O)O)c(O)c1
786-0
  GI50: > 100 µM (inactive)
A498
  GI50: > 100 µM (inactive)
A549
  GI50: > 100 µM (inactive)
ACHN
  GI50: > 100 µM (inactive)
CAKI-1
  GI50: > 100 µM (inactive)
CCRF-CEM
  GI50: > 100 µM (inactive)
COLO 205
  GI50: > 100 µM (inactive)
DLD-1
  GI50: > 100 µM (inactive)
DMS-114
  GI50: > 100 µM (inactive)
EKVX
  GI50: > 100 µM (inactive)
HCC 2998
  GI50: > 100 µM (inactive)
HCT-116
  GI50: > 100 µM (inactive)
HCT-15
  GI50: > 100 µM
HL-60
  GI50: > 100 µM (inactive)
HOP-18
  GI50: > 100 µM (inactive)
HOP-62
  GI50: > 100 µM (inactive)
HOP-92
  GI50: > 100 µM (inactive)
HT-29
  GI50: > 100 µM (inactive)
IGROV-1
  GI50: > 100 µM (inactive)
K562
  GI50: > 100 µM (inactive)
KM-20L2
  GI50: > 100 µM (inactive)
KM12
  GI50: > 100 µM (inactive)
LOX IMVI
  GI50: > 100 µM (inactive)
LXFL 529
  GI50: > 100 µM (inactive)
M14
  GI50: > 100 µM (inactive)
M19-MEL
  GI50: > 100 µM (inactive)
MOLT-4
  GI50: > 100 µM (inactive)
Malme-3M
  GI50: > 100 µM (inactive)
NCI-H226
  GI50: > 100 µM (inactive)
NCI-H23
  GI50: > 100 µM (inactive)
NCI-H460
  GI50: > 100 µM (inactive)
NCI-H522
  GI50: > 100 µM (inactive)
OVCAR-3
  GI50: > 100 µM (inactive)
OVCAR-4
  GI50: > 100 µM (inactive)
OVCAR-5
  GI50: > 100 µM (inactive)
OVCAR-8
  GI50: > 100 µM (inactive)
RXF 393
  GI50: > 100 µM (inactive)
RXF 631
  GI50: > 100 µM (inactive)
SF-268
  GI50: > 100 µM (inactive)
SF-295
  GI50: > 100 µM (inactive)
SF-539
  GI50: > 100 µM (inactive)
SK-MEL-28
  GI50: > 100 µM (inactive)
SK-MEL-2
  GI50: > 100 µM (inactive)
SK-MEL-5
  GI50: > 100 µM (inactive)
SK-OV-3
  GI50: > 100 µM (inactive)
SN12C
  GI50: > 100 µM (inactive)
SNB-19
  GI50: > 100 µM (inactive)
SNB-75
  GI50: > 100 µM (inactive)
SNB-78
  GI50: > 100 µM (inactive)
SW-620
  GI50: > 100 µM (inactive)
TK-10
  GI50: > 100 µM (inactive)
U-251
  GI50: > 100 µM (inactive)
UACC-257
  GI50: > 100 µM (inactive)
UACC-62
  GI50: > 100 µM (inactive)
UO-31
  GI50: > 100 µM (inactive)

Source: ChEMBL document CHEMBL1201862, “PubChem BioAssay data set” (2004)
